For data set [1], the system named is Shigella dysenteriae. The data set is described as follows: Potency index, ratio of chloromycin MIC to compound MIC for Shigella dysenteriae. The format is functional.
Data set [2] can be described thus: Antifungal activity against Candida mycoderma after 24 hrs by two fold serial dilution method. The format is functional. The settings on record: Pichia norvegensis.
For data set [3], the system named is Escherichia coli. The data set is described as follows: Antibacterial activity against Escherichia coli JM109 after 24 hrs by two fold serial dilution method. The format is functional. The note with it: JM109, 24 h.
For the next data set, the system named is Proteus vulgaris. The data set is described as follows: Antibacterial activity against Bacillus proteus ATCC 13315 after 24 hrs by two fold serial dilution method. The format is functional. The note with it: ATCC 13315, 24 h.
The test system of data set [4] is Shigella dysenteriae. The data set is described as follows: Potency index, ratio of norfloxacin MIC to compound MIC for Shigella dysenteriae. The format is functional.
The subject of data set [5] is Escherichia coli. The data set is described as follows: Antibacterial activity against Escherichia coli DH52 after 24 hrs by two fold serial dilution method. The format is functional. The settings on record: DH52, 24 h.
The subject of a further data set is Micrococcus luteus. The experiment in a line: Antibacterial activity against Micrococcus luteus ATCC 4698 after 24 hrs by two fold serial dilution method. The format is functional. The note with it: NCTC 2665, 24 h.
For data set [6], the system named is Shigella dysenteriae. The experiment in a line: Antibacterial activity against Shigella dysenteriae after 24 hrs by two fold serial dilution method. The format is functional.
Data set [7] deals with Aspergillus flavus. The data set is described as follows: Antifungal activity against Aspergillus flavus after 24 hrs by two fold serial dilution method. The format is functional.
The subject of data set [8] is Staphylococcus aureus. The experiment in a line: Antibacterial activity against methicillin-resistant Staphylococcus aureus N315 after 24 hrs by two fold serial dilution method. The format is functional. The settings on record: N315, 24 h.
The test system of another data set is Pseudomonas aeruginosa. The data set is described as follows: Antibacterial activity against Pseudomonas aeruginosa ATCC 27853 after 24 hrs by two fold serial dilution method. The note with it: ATCC 27853, 24 h. The format is functional.
For data set [9], the system named is Staphylococcus aureus. The experiment in a line: Antibacterial activity against Staphylococcus aureus ATCC 25923 after 24 hrs by two fold serial dilution method. The format is functional. The settings on record: ATCC 25923, 24 h.
The subject of data set [10] is Salmonella typhi. The experiment in a line: Antibacterial activity against Bacillus typhi after 24 hrs by two fold serial dilution method. The format is functional, Salmonella enterica subsp. enterica serovar Typhi. The settings on record: Salmonella enterica.
The subject of a further data set is Candida albicans. The experiment in a line: Antifungal activity against Candida albicans ATCC 76615 after 24 hrs by two fold serial dilution method. The note with it: ATCC 76615, 24 h. The format is functional.
A short description of data set [11]: Antifungal activity against Candida utilis after 24 hrs by two fold serial dilution method. The settings on record: Cyberlindnera jadinii. The format is functional.
The test system of a further data set is Bacillus spizizenii. The data set is described as follows: Antibacterial activity against Bacillus subtilis ATCC 6633 after 24 hrs by two fold serial dilution method. The format is functional. The note with it: ATCC 6633, 24 h.
For a further data set, the system named is Saccharomyces cerevisiae. The experiment in a line: Antifungal activity against Beer yeast after 24 hrs by two fold serial dilution method. The format is functional.
Data set [12] has as its system Aspergillus flavus. The data set is described as follows: Potency index, ratio of fluconazole MIC80 to compound MIC80 for Aspergillus flavus. The format is functional.
Data set [13] concerns Salmonella typhi. The experiment in a line: Induction of membrane permeabilization in Bacillus typhi at 12 times MIC measured for 2 hrs by propidium iodide staining based fluorescence assay. The settings on record: Salmonella enterica subsp. enterica serovar Typhi. The format is functional.
A short description of data set [14]: Cytotoxicity against mouse L929 cells assessed as reduction in cell viability after 48 hrs by MTT assay. The format is toxicity. (In general: Tetrazolium assays rely on reduction of a dye to a coloured formazan, in cell work by metabolically active cells.)
Data set [15] relates to Staphylococcus aureus. The data set is described as follows: Bactericidal activity against methicillin-resistant Staphylococcus aureus N315 assessed as log reduction in bacterial count at 4 times MIC up to 1 hr by time-kill kinetic assay. The format is functional.
Data set [16] relates to Staphylococcus aureus. The experiment in a line: Induction of membrane permeabilization in methicillin-resistant Staphylococcus aureus N315 at 12 times MIC measured for 2 hrs by propidium iodide staining based fluorescence assay. The format is functional.
In data set [17] the test system is Salmonella typhi. The data set is described as follows: Potency index, ratio of norfloxacin MIC to compound MIC for Bacillus typhi. The format is functional, Salmonella enterica subsp. enterica serovar Typhi.
Data set [18] has as its system Staphylococcus aureus. The data set is described as follows: Antibacterial activity against methicillin-resistant Staphylococcus aureus N315 after 15 days by serial passage resistance development assay. The format is functional.
In data set [19] the test system is Salmonella typhi. The data set is described as follows: Potency index, ratio of chloromycin MIC to compound MIC for Bacillus typhi. The format is functional, Salmonella enterica subsp. enterica serovar Typhi.
The species named for data set [20] is Bos taurus. The data set is described as follows: Binding affinity to calf thymus DNA assessed as hypochromism up to 9 x 10^-5mol/L by UV-Visible spectroscopic method.
The species named for data set [21] is Bos taurus. The experiment in a line: Binding affinity to calf thymus DNA by UV-Visible spectroscopic method.
For data set [22], the species on record is Bos taurus. The experiment in a line: Binding affinity to calf thymus DNA assessed as DNA intercalation up to 1.75 x 10^-5mol/L by neutral red dye based UV-Visible spectroscopic method.

Consider 2 molecules from ChEMBL document CHEMBL3875175, “Multi-targeting exploration of new 2-aminothiazolyl quinolones: Synthesis, antimicrobial evaluation, interaction with DNA, combination with topoisomerase IV and penetrability into cells” (Eur J Med Chem, 2016).

The MIC80 is an inhibitory concentration at the 80% level, which refers to growth in some studies and to a panel of isolates in others. High values mean lower susceptibility, low ones higher susceptibility. The MIC is the lowest concentration that inhibits growth of the organism. The term IC50 denotes the midpoint of a concentration-inhibition curve.

≈ marks a conversion by molar mass, not a printed value. Calls of active or inactive are those of the source. No cut-off for these calls is given here.

Take `CCCn1cc(-c2cnc(N)s2)c(=O)c2cc(F)cc(F)c21`: the Ratio in the data set with Shigella dysenteriae [1] and in the data set with Shigella dysenteriae [4] was 4 in each case. Moreover, the MIC80 in data set [2] came out at 32 mg/L (≈ 99.6 µM); with Aspergillus flavus [7] it was 32 mg/L (≈ 99.6 µM); against Candida albicans, 32 mg/L (≈ 99.6 µM); in [11], 64 mg/L (≈ 199 µM); against Saccharomyces cerevisiae it was 16 mg/L (≈ 49.8 µM). For the same molecule, the MIC came out at 64 mg/L (≈ 199 µM) against Escherichia coli [3]; 64 mg/L (≈ 199 µM) with Proteus vulgaris; 64 mg/L (≈ 199 µM) against Escherichia coli [5]; 16 mg/L (≈ 49.8 µM) against Micrococcus luteus; 4 mg/L (≈ 12.4 µM) against Shigella dysenteriae [6]; 32 mg/L (≈ 99.6 µM) with Staphylococcus aureus [8]. For the same molecule, the MIC against Pseudomonas aeruginosa amounted to 16 mg/L (≈ 49.8 µM); against Staphylococcus aureus [9], 16 mg/L (≈ 49.8 µM); in the data set on Salmonella typhi [10], 16 mg/L (≈ 49.8 µM); against Bacillus spizizenii, 32 mg/L (≈ 99.6 µM).

On to `C#CCn1cc(-c2cnc(N)s2)c(=O)c2cc(F)cc(F)c21`, for which the Ratio in the data set on Aspergillus flavus [12] is listed as 32; in the data set with Salmonella typhi [17] it was 4; with Salmonella typhi [19], 32. Also, the MIC80 in data set [2] worked out at 8 mg/L (≈ 25.2 µM); against Aspergillus flavus [7], 8 mg/L (≈ 25.2 µM); against Candida albicans it was 16 mg/L (≈ 50.4 µM); in data set [11], 32 mg/L (≈ 101 µM); in the data set on Saccharomyces cerevisiae it was 8 mg/L (≈ 25.2 µM). Further, the result in the data set with Salmonella typhi [13], with Staphylococcus aureus [16], with Staphylococcus aureus [18], in the data set filed under Bos taurus [20] and in the data set filed under Bos taurus [22] was Active. For the same molecule, the minimal inhibitory concentration (MIC) was 32 mg/L (≈ 101 µM) in the data set with Escherichia coli [3]; 32 mg/L (≈ 101 µM) with Proteus vulgaris; 16 mg/L (≈ 50.4 µM) against Escherichia coli [5]; 32 mg/L (≈ 101 µM) in the data set on Micrococcus luteus; 8 mg/L (≈ 25.2 µM) against Shigella dysenteriae [6]; 8 mg/L (≈ 25.2 µM) in the data set on Staphylococcus aureus [8]. Moreover, the MIC against Pseudomonas aeruginosa was found to be 16 mg/L (≈ 50.4 µM); against Staphylococcus aureus [9] it was 8 mg/L (≈ 25.2 µM); in the data set with Salmonella typhi [10], 1 mg/L (≈ 3.15 µM); in the data set on Bacillus spizizenii, 16 mg/L (≈ 50.4 µM). Moreover, the IC50 at 48 h in [14] was found to be 289 mg/L (≈ 911 µM). Moreover, in the data set with Staphylococcus aureus [15], the Activity was 3 log10CFU/ml. The K in the data set listed under Bos taurus [21] is 0.538 ×10⁴ L/mol.
